Drawing on patent US20080152715A1, “Method for preparing nanoparticles comprising vitamin K and poly-isopropyl-butyl methacrylate-acrylic acid copolymer with supercritical fluid using molecular association theory” (Seoul National Universtiy Industry Foundation, priority 2006, published 2008), this text covers particle size for 1 substance.

A short description of this series: Particle size measurement using a Particle Size Analyzer. The format is physicochemical. The note with it: pretreated vitamin K, before the supercritical process. How it is done:
The pretreated vitamin K has a particle size of 50 to 100 microns. In Examples, the particle sizes of vitamin K nanoparticles prepared by the following conditions were measured using a Particle Size Analyzer. Here, spherical fine particles having a particle size of 50 to 300 nm can be obtained according to the presence or absence of a poly-isopropyl-butyl methacrylate-acrylic acid copolymer as a biodegradable polymer, and the operating conditions.
As shown in the following Table 1, the present Examples represent the operating conditions of the reactor in the step of formation of a spherical structure. The temperature and the pressure of the reactor must be each above 304.2 K and 73.8 bar, which correspond to the critical temperature and the critical pressure of carbon dioxide, respectively. The operating parameters in the reactor are the temperature and the pressure in reactor, the amount of carbon dioxide as a supercritical fluid, and the amount of solution prepared in the preparation step. In Example 1, the solution contains vitamin K of 0.0016 wt % alone without a biodegradable polymer. In Example 2 to 8, the solution contains both of vitamin K of 0.0016 wt % and the poly-isopropyl-butyl methacrylate-acrylic acid copolymer of 0.0014 wt % as a biodegradable polymer. […] In Examples 1 and 3, the change was measured at 313K and 323K by adjusting the reactor temperature. […]

Turning to vitamin K [pretreated vitamin K], the particle size is 50 to 100 microns.
